Assays:
[1] = In vitro skin flux study (Franz cell transdermal flux test); assay type: in vitro ADME, human; conditions: free base; conclusion from the in vitro skin flux study
Excerpt: Human cadaver skin was used and epidermal layers (stratum corneum and epidermis) were separated from the full-thickness skin as skin membrane. Samples were die-cut with an arch punch to a final diameter of about 2.0 cm^2. The release liner was removed and the system was placed on top of the epidermis/stratum corneum with the drug adhesive layer facing the stratum corneum. Gentle pressure was applied to effect good contact between the adhesive layer and stratum corneum. The donor and receptor sides of the Franz cell were clamped together and the receptor solution containing a phosphate buffer at pH 6.5 was added to the Franz cell. The cells were kept at 33° C. for the duration of the experiment. Samples of the receptor solution were taken at regular intervals and the active agent concentration was measured by HPLC. The removed receptor solution was replaced with fresh solution to maintain the sink conditions. The flux was calculated from the slope of cumulative amounts of the drug in the receiver compartment versus time plot.
Transdermal delivery devices containing various formulations of (1 R,2 R,3 S,5 S)-3-(3,4-dichlorophenyl)-2-(methoxymethyl)-8-azabicyclo[3.2.1]octane (i.e., NS2359) are summarized in Table 1. An in vitro skin flux study was performed as described above with transdermal delivery devices having the formulations listed in Table 1. […]

[2] = Astrup et al., 2008, Lancet 372: 1906-13; cited from earlier work

Structure (SMILES)	Transdermal deliverability [1]	Sagittal diameter [2]	Waist circumference [2]
COC[C@@H]1[C@@H](c2ccc(Cl)c(Cl)c2)C[C@@H]2CC[C@H]1N2 [NS2359, (1 R,2 R,3 S,5 S)-3-(3,4-dichlorophenyl)-2-(methoxymethyl)-8-azabicyclo[3.2.1]octane]	can be delivered transdermally	–	–
CCOC[C@@H]1[C@@H](c2ccc(Cl)c(Cl)c2)C[C@@H]2CC[C@H]1N2C [Tesofensine, (1 R,2 R,3 S,5 S)-3-(3,4-dichlorophenyl)-2-(ethoxymethyl)-8-methyl-8-azabicyclo[3.2.1]octane]	–	significantly decreases	significantly decreases
